# System: HeLa cells
# Assay type: cell-based, human
# Details: MTT, concluding statement
smiles,measurement,value
Cc1ncc(-c2cc(F)c(O)c(F)c2)cc1-c1cc(F)c(O)c(F)c1 [compound 26],toxicity to human cells,not overtly toxic
